A short description of assay [1]: Cytotoxicity against p53-/- transgenic mouse derived T11 cells assessed as cell viability measured after 48 hrs by Cell Titer Glo assay. The following applies: T11, 48 h. It is filed as functional, cell-based.
Assay [2] concerns PC-3. Put plainly: Antiproliferative activity against human PC-3 cells assessed as inhibition of cell proliferation measured after 2 to 4 hrs incubation by MTT assay. Format: functional, cell-based.
The subject of the next assay is DU-145. Put plainly: Antiproliferative activity against human DU-145 cells assessed as inhibition of cell proliferation measured after 2 to 4 hrs incubation by MTT assay. It is filed as functional, cell-based. A general note: Formazan colour is commonly taken as a measure of viable cells.
The subject of a further assay is A549. The assay can be described thus: Cytotoxicity against human A549 cells assessed as cell viability measured after 24 hrs incubation by MTT assay. The following applies: A549, 24 h. Format: functional, cell-based.
Another assay deals with HCT-116. The assay can be described thus: Antiproliferative activity against human HCT116 cells assessed as inhibition of cell proliferation measured after 2 to 4 hrs incubation by MTT assay. Format: functional, cell-based.
For the next assay, the system named is NCI-H292. The assay can be described thus: Cytotoxicity against human NCI-H292 cells. It is filed as functional, cell-based.
Another assay deals with NCI-H460. The assay can be described thus: Cytotoxicity against human NCI-H460 cells. Format: functional, cell-based.
For the next assay, the system named is BT-474. Put plainly: Anticancer activity against human BT-474 cells assessed as cell viability measured after 48 hrs by MTT assay. Format: functional, cell-based. The following applies: BT-474, 48 h.
In assay [3] the target is Hepatocyte growth factor receptor (Homo sapiens, UniProt P08581). Put plainly: Inhibition of c-Met phosphorylation in human BT-474 cells using Z-LYTE Tyr6 peptide substrate measured after 1 hr incubation by Z-LYTE c-Met Kinase assay. Format: cell-based.
Sequence of Hepatocyte growth factor receptor (P08581 whole entry): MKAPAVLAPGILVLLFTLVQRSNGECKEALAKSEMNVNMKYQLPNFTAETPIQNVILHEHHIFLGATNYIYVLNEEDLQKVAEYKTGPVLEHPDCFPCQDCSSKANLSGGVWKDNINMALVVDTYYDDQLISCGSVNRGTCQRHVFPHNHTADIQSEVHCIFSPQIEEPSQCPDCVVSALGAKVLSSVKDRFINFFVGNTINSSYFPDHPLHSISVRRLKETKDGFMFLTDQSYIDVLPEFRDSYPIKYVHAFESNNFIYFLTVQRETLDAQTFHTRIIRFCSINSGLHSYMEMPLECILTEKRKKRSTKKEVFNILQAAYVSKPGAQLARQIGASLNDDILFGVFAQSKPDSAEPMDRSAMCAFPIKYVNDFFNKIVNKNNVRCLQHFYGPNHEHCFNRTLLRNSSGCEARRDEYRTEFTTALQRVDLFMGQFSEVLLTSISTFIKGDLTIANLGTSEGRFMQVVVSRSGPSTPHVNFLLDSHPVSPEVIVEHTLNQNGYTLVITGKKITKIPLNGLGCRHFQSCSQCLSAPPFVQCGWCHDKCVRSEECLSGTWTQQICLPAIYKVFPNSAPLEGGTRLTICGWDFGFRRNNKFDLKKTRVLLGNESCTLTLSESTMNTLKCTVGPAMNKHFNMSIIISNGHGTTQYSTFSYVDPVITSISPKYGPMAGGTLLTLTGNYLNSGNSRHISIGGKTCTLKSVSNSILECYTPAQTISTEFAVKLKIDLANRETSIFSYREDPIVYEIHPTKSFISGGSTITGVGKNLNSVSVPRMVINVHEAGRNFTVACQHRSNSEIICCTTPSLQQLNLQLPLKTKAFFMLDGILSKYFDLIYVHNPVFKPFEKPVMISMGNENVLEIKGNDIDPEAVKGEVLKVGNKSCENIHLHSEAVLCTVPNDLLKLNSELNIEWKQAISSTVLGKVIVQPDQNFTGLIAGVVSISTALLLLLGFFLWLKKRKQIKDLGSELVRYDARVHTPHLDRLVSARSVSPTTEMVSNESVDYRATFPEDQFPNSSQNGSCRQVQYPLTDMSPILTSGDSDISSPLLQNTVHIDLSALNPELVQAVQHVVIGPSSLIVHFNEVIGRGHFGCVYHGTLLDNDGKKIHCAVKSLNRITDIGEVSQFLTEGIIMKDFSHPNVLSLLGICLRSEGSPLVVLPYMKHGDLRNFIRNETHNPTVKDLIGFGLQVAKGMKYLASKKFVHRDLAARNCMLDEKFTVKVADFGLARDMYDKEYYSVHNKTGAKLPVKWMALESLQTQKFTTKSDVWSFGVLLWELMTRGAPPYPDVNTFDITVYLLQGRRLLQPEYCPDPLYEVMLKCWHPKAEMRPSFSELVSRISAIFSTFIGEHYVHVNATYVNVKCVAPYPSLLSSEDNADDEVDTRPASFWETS
Assay [4] concerns CWR22R. The assay can be described thus: Cytotoxicity against human 22Rv1 cells assessed as cell viability measured after 48 hrs incubation by MTT assay. The following applies: 22Rv1, 48 h. It is filed as functional, cell-based.
In assay [5] the test system is PC-3. Put plainly: Cytotoxicity against human PC-3 cells assessed as cell viability measured after 24 hrs incubation followed by incubated 3 hrs with MTS reagent by MTS assay. It is filed as functional, cell-based.
Assay [6] concerns CWR22R. The assay can be described thus: Cytotoxicity against human 22Rv1 cells assessed as cell viability measured after 24 hrs incubation followed by incubated 3 hrs with MTS reagent by MTS assay. It is filed as functional, cell-based.
Assay [7] deals with MCF7. The assay can be described thus: Cytotoxicity against human MCF7 cells assessed as cell killing by SRB colorimetric assay. Format: functional, cell-based. (In general: The SRB assay estimates cell density from bound dye.)
Assay [8] concerns MCF7. Put plainly: Cytotoxicity against human MCF7 cells assessed as cell viability measured after 48 hrs by MTT cell proliferation assay. It is filed as functional, cell-based. The conditions noted are these: MCF7, 48 h.
For assay [9], the system named is MDA-MB-231. The assay can be described thus: Cytotoxicity against human MDA-MB-231 cells assessed as cell viability measured after 48 hrs by MTT assay. It is filed as functional, cell-based. The following applies: MDA-MB-231, 48 h.
The test system of assay [10] is MDA-MB-231. Put plainly: Cytotoxicity against human MDA-MB-231 cells assessed as cell growth inhibition incubated for 72 hrs by alamarblue staining based assay. The following applies: MDA-MB-231, 72 h. It is filed as functional.
Assay [11] has as its system MDA-MB-231. Put plainly: Cytotoxicity against human MDA-MB-231 cells measured after 24 to 72 hrs by MTT cell proliferation assay. It is filed as functional, cell-based.
The next assay has as its system SW-620. Put plainly: Cytotoxicity against human SW620 cells assessed as cell growth measured after 24 hrs incubation by Sulforhodamine B (SRB) assay. It is filed as functional, cell-based. The following applies: SW-620, 24 h.
The test system of a further assay is SW480. Put plainly: Cytotoxicity against human SW480 cells assessed as cell growth measured after 24 hrs incubation by Sulforhodamine B (SRB) assay. Format: functional, cell-based. The following applies: SW480, 24 h.

pIC50: −log10 of the molar value.

By pIC50 is commonly meant the IC50 on a negative log10 scale, so that one unit is a factor of ten.

Turning to `CC[C@H]1C=CCC[C@@]2(C[C@@H]3CC[C@@H]4[C@H](C(=O)OCCCCCCCCCCCCCCCC(=O)N(CCCN)C[C@@H](O)CCN)[C@]5(CCC[C@@H](C)O5)NC(=N2)N34)O1`, in assay [1], the pIC50 is 7.05.
Consider `COC1=C(Br)[C@H](O)[C@](O)(CC#N)C=C1Br`, for which the pIC50 in the assay with PC-3 [2] was 6.92; in the assay with DU-145, 6.27.
In the case of `C/C=C(/C)C(=O)OC[C@H]1c2c(c(O)c(C)c3c2OCO3)C[C@H]2[C@H]3C4=C(C[C@@H]([C@H](C#N)N12)N3C)C(=O)C(C)=C(OC)C4=O`, the pIC50 in the assay on A549 was 4.60.
Regarding `CC[C@@H]1CCCC[C@]2(C[C@H]3CC[C@@]4(O)[C@@H](C(=O)OCCCCCCCCCCCCCCCCC(=O)N(CCCN)C[C@@H](O)CCN)[C@@]5(CCC[C@H](C)O5)N=C(N2)N34)O1`, the pIC50 with HCT-116 is 5.40.
Consider `C/C=C(/C)C(=O)OC[C@H]1c2c(O)c(OC)c(C)c(OC(=O)/C=C/c3ccccc3)c2C[C@H]2[C@H]3C4=C(C[C@@H]([C@H](C#N)N12)N3C)C(=O)C(C)=C(OC)C4=O`, for which the pIC50 with NCI-H292 and in the assay with NCI-H460 was 4.83 each time.
Turning to `[O-][N+]12CCC[C@]3(O)CCCCCC[C@H]4CCN5CCC[C@@H](CCCCCC[C@@H](CC1)O[C@@H]32)[C@@H]5O4` (some centres not stated), the pIC50 was 4.82 with BT-474 and 4.70 in [3].
As to `CCC/C=C\CC[C@@H](O)C[C@H]1CCC2=C(C(=O)OCCCCN(O)C(=N)N)[C@H](CC/C=C\CCC)NC(=N)N21`, the pIC50 in the assay on CWR22R [4] is 5.30.
For the molecule `O=C1c2ccc(Br)cc2-[n+]2ccc3c([nH]c4cc(Br)ccc43)c21`, the pIC50 is 5.14 in the assay with PC-3 [5] and 6.16 in the assay with CWR22R [6].
As for `O=C(Cc1c[nH]c2ccccc12)N/N=C1\C(=O)Nc2ccc([N+](=O)[O-])cc21`, the pIC50 in the assay on MCF7 [7] was 6.36.
With `Cn1c2ccccc2c2cc(C3=NCCc4c3[nH]c3ccccc43)ccc21`, in the assay on MCF7 [8], the pIC50 is 5.26.
Consider `CCC/C=C\CC[C@@H](O)C[C@H]1CCC2=C(C(=O)OCCCCN(O)C(=N)N)[C@H](CC/C=C\CCC)NC(N)=[N+]21`, for which, in the assay with CWR22R [4], the negative-log IC50 (pIC50) is 5.30.
Take `CC[C@@H]1C=CCC[C@]2(C[C@H]3CC[C@@]4(O)[C@@H](C(=O)OCCCCCCCCCCCCCCCC(=O)N(CCCN)C[C@@H](O)CCN)[C@@]5(CCC[C@H](C)O5)N=C(N2)N34)O1`: the pIC50 in the assay on HCT-116 was 5.33.
As to `CN1C(=O)/C(=N\NC(=O)Cc2c[nH]c3ccccc23)c2ccccc21`, the pIC50 in the assay on MCF7 [7] was 5.89.
As to `O=C1c2cccc(Cl)c2-[n+]2ccc3c([nH]c4ccccc43)c21`, in the assay on MDA-MB-231 [9], the pIC50 was 6.52.
As to `N=C(N)NCCCCNC(=O)[C@@]1(O)[C@H](Cc2c[nH]c3cc(Br)ccc23)[C@@](O)(Cc2c[nH]c3cc(Br)ccc23)C(=O)N1CCCCNC(=N)N` [EUSYNSTYELAMIDE B], the pIC50 in the assay on MDA-MB-231 [10] is 5.30.
As for `COc1cc2ccnc3c2c(c1O)N(C)C=C3` [ISOAAPTAMINE], in the assay on MDA-MB-231 [11], the pIC50 is 4.52.
Turning to `Cn1ccc2c(c1=O)C(=O)c1nccc3c1c-2nc1ccccc13` [NEOAMPHIMIDINE], the figures for the negative-log IC50 (pIC50) in the assay with SW-620 and in the assay with SW480 were 7.22 and 8.22, respectively.

Values taken from ChEMBL document CHEMBL5614441, “Anticancer potential of active alkaloids and synthetic analogs derived from marine invertebrates” (Eur J Med Chem, 2024).
